Reference: ChEMBL document CHEMBL5705896 (ACS Chem Biol, 2013)
Calls of active or inactive are those of the source. The rule behind the calls is not given here.

Key:
[1] = molecular target: Tyrosine-protein kinase JAK3 (Homo sapiens) (UniProt P52333); assay: Inhibition of human catalytic domain N-terminal his tagged JAK3 (795 to 1124 end residues) expressed in baculovirus expression system using Srctide as substrate at 10 uM by mobility shift assay relative to control
[2] = molecular target: Tyrosine-protein kinase Lck (Homo sapiens) (UniProt P06239); assay: Inhibition of full length human N-terminal GST tagged LCK (1 to 509 end residues) expressed in baculovirus expression system using Srctide as substrate at 10 uM by mobility shift assay relative to control
[3] = molecular target: High affinity nerve growth factor receptor (Homo sapiens) (UniProt P04629); assay: Inhibition of human cytoplasmic domain N-terminal GST tagged TRKA (436 to 790 end residues) expressed in baculovirus expression system using CSKtide as substrate at 10 uM by mobility shift assay relative to control
[4] = molecular target: Aurora kinase A (Homo sapiens) (UniProt O14965); assay: Inhibition of full length human N-terminal GST tagged AurA (1 to 403 end residues) expressed in baculovirus expression system using kemptide as substrate at 10 uM by mobility shift assay relative to control
[5] = molecular target: CDK2/Cyclin A2 (Homo sapiens) (UniProt P24941+P20248); assay: Inhibition of full length human N-terminal GST tagged CDK2 (1 to 298 residues)/GST tagged CycA2 (1 to 432 end residues) expressed in baculovirus expression system using histone H1 as substrate at 10 uM by mobility shift assay relative to control
[6] = molecular target: Interleukin-1 receptor-associated kinase 4 (Homo sapiens) (UniProt Q9NWZ3); assay: Inhibition of full length human N-terminal GST tagged IRAK4 (1 to 460 end residues) expressed in baculovirus expression system using IRAK1 as substrate at 10 uM by mobility shift assay relative to control
[7] = Inhibition of human catalytic domain N-terminal GST tagged p70S6K (1 to 421 residues) expressed in baculovirus expression system using S6K2 peptide as substrate at 10 uM by mobility shift assay relative to control; conditions: condition weaver syndrome
[8] = molecular target: Serine/threonine-protein kinase D2 (Homo sapiens) (UniProt Q9BZL6); assay: Inhibition of full length human N-terminal GST tagged PKD2 (1 to 878 end residues) expressed in baculovirus expression system using GS as peptide at 10 uM by mobility shift assay relative to control
[9] = molecular target: Serine/threonine-protein kinase Sgk1 (Homo sapiens) (UniProt O00141); assay: Inhibition of truncated human N-terminal GST-tagged SGK (61 to 431 end residues) expressed in baculovirus expression system using SGKtide as substrate at 10 uM by mobility shift assay relative to control
[10] = molecular target: 5-hydroxytryptamine receptor 1B (Homo sapiens) (UniProt P28222); assay: Inhibition of 5-HT1B receptor (unknown origin) at 10 uM by radioligand binding assay relative to control
[11] = molecular target: 5-hydroxytryptamine receptor 1E (Homo sapiens) (UniProt P28566); assay: Inhibition of 5-HT1E receptor (unknown origin) at 10 uM by radioligand binding assay relative to control
[12] = molecular target: Alpha-1A adrenergic receptor (Homo sapiens) (UniProt P35348); assay: Inhibition of Alpha1A receptor (unknown origin) at 10 uM by radioligand binding assay relative to control
[13] = molecular target: Beta-2 adrenergic receptor (Homo sapiens) (UniProt P07550); assay: Inhibition of Beta2 receptor (unknown origin) at 10 uM by radioligand binding assay relative to control
[14] = molecular target: D(1A) dopamine receptor (Homo sapiens) (UniProt P21728); assay: Inhibition of dopamine D1 receptor (unknown origin) at 10 uM by radioligand binding assay relative to control
[15] = molecular target: D(2) dopamine receptor (Homo sapiens) (UniProt P14416); assay: Inhibition of dopamine D2 receptor (unknown origin) at 10 uM by radioligand binding assay relative to control
[16] = molecular target: D(4) dopamine receptor (Homo sapiens) (UniProt P21917); assay: Inhibition of dopamine D4 receptor (unknown origin) at 10 uM by radioligand binding assay relative to control
[17] = molecular target: Histamine H2 receptor (Homo sapiens) (UniProt P25021); assay: Inhibition of H2 receptor (unknown origin) at 10 uM by radioligand binding assay relative to control
[18] = molecular target: Muscarinic acetylcholine receptor M5 (Homo sapiens) (UniProt P08912); assay: Inhibition of M5 receptor (unknown origin) at 10 uM by radioligand binding assay relative to control
[19] = molecular target: Mu-type opioid receptor (Homo sapiens) (UniProt P35372); assay: Inhibition of MOR (unknown origin) at 10 uM by radioligand binding assay relative to control
[20] = molecular target: Histone-lysine N-methyltransferase EZH2 (Homo sapiens, UniProt Q15910, Y641F); assay: Inhibition of EZH2 Y641F mutant (unknown origin) using HMT as substrate incubated for 60 mins by luminescence based analysis
[21] = molecular target: N-lysine methyltransferase SMYD2 (Homo sapiens, UniProt Q9NRG4); assay: Inhibition of SMYD2 (unknown origin) using [3H-SAM] as substrate incubated for 1 hr by scintillation proximity assay
[22] = molecular target: Protein arginine N-methyltransferase 5 (Homo sapiens, UniProt O14744); assay: Inhibition of PRMT5 (unknown origin) using [3H-SAM] as substrate incubated for 1 hr by scintillation proximity assay
[23] = molecular target: Histone-lysine N-methyltransferase SETD7 (Homo sapiens, UniProt Q8WTS6); assay: Inhibition of SETD7 (unknown origin) using [3H-SAM] as substrate incubated for 1 hr by scintillation proximity assay
[24] = molecular target: Protein arginine N-methyltransferase 3 (Homo sapiens, UniProt O60678); assay: Inhibition of PRMT3 (unknown origin) using [3H-SAM] as substrate incubated for 1 hr by scintillation proximity assay
[25] = molecular target: Protein arginine N-methyltransferase 1 (Homo sapiens, UniProt Q99873); assay: Inhibition of PRMT1 (unknown origin) using [3H-SAM] as substrate incubated for 1 hr by scintillation proximity assay
DB = assay: Antiproliferative activity against human DB cells assessed as reduction in cell viability at 3000 nM measured after 8 days by cell proliferation assay; type: functional, cell-based; conditions: time 8.0 day
Histamine H3 receptor = Histamine H3 receptor (Homo sapiens, UniProt Q9Y5N1)
Description: Binding affinity to H3 receptor (unknown origin) assessed as inhibition constant

[26] = molecular target: T1, Histone-lysine N-methyltransferase EZH2 (Homo sapiens, UniProt Q15910)
Description: Competitive inhibition of EZH2 methyltransferase activity (unknown origin) in PRC2 complex assessed as inhibition constant in presence of cofactor SAM by Lineweaver-Burk plot analysis

[27] = molecular target: T1, Histone-lysine N-methyltransferase EZH2; remark: listed apart in the source
Description: Inhibition of human EZH2 in human MCF-10A cells assessed as reduction in H3K27me3 levels incubated for 72 hrs by In-cell western assay

T1 sequence (Q15910 whole entry): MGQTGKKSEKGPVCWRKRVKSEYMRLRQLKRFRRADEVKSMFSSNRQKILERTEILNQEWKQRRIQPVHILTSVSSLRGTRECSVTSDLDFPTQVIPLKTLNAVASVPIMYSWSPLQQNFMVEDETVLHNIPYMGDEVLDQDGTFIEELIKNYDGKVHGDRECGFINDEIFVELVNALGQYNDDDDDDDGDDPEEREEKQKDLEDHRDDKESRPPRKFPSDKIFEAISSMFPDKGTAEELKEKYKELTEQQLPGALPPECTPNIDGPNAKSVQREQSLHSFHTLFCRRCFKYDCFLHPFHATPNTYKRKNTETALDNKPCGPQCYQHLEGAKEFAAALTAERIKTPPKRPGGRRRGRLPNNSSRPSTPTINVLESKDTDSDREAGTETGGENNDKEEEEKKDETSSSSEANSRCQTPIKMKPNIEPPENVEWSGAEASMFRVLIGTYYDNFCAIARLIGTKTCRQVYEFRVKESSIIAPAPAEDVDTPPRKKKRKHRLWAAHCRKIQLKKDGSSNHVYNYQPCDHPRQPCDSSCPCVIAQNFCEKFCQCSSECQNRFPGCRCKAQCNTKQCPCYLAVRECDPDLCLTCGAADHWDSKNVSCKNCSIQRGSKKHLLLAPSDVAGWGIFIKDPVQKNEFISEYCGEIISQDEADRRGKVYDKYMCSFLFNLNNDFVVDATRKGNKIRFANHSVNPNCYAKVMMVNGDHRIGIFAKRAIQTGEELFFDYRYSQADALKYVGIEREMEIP
Sequence of Histamine H2 receptor (Homo sapiens) (P25021 whole entry): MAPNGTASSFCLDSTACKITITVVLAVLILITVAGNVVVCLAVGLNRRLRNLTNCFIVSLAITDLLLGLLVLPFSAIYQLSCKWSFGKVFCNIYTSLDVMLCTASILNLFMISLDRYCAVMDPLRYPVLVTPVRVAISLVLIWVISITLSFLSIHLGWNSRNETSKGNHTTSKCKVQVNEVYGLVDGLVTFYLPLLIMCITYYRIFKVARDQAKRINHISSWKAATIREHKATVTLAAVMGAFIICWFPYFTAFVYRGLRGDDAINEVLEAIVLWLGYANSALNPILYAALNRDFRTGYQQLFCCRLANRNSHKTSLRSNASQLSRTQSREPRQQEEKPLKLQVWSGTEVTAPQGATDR
Sequence of Histamine H3 receptor (Q9Y5N1 whole entry): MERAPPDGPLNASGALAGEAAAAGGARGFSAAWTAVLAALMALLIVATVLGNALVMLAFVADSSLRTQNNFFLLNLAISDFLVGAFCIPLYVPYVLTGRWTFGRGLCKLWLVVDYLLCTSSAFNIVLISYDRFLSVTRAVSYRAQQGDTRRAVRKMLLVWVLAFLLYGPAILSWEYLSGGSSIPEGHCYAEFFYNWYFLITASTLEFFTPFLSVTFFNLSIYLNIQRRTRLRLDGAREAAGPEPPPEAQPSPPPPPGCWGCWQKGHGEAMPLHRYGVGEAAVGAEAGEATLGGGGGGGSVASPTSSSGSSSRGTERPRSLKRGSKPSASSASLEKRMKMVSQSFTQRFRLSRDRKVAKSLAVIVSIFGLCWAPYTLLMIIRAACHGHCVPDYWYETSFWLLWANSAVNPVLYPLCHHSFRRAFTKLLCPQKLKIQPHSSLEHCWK
Sequence of Muscarinic acetylcholine receptor M5 (Homo sapiens) (P08912 whole entry): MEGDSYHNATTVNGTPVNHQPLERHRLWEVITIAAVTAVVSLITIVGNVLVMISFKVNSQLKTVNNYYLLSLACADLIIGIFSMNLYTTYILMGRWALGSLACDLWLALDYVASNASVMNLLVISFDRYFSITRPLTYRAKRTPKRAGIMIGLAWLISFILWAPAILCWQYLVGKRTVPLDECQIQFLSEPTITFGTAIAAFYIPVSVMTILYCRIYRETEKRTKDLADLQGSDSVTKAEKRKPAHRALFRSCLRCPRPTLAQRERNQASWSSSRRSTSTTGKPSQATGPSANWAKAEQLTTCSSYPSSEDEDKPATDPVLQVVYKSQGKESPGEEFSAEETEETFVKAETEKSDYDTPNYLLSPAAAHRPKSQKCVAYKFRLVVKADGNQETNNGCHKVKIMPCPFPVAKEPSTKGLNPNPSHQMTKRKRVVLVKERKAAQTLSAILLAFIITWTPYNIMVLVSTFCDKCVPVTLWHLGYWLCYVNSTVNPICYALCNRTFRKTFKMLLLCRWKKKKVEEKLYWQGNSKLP
Sequence of Beta-2 adrenergic receptor (Homo sapiens) (P07550 whole entry, looked up): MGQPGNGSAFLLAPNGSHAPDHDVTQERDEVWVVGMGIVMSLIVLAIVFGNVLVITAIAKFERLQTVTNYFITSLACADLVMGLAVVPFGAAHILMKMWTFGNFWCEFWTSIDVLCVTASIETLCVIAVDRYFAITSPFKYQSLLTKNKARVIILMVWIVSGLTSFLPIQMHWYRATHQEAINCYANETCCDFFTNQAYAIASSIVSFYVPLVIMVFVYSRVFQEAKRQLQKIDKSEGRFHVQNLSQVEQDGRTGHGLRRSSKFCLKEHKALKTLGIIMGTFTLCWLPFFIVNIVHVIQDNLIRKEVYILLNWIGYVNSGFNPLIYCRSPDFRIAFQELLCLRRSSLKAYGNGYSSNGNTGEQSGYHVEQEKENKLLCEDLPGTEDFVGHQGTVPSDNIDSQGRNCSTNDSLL
Sequence of High affinity nerve growth factor receptor (Homo sapiens) (P04629 33-796 limits assumed): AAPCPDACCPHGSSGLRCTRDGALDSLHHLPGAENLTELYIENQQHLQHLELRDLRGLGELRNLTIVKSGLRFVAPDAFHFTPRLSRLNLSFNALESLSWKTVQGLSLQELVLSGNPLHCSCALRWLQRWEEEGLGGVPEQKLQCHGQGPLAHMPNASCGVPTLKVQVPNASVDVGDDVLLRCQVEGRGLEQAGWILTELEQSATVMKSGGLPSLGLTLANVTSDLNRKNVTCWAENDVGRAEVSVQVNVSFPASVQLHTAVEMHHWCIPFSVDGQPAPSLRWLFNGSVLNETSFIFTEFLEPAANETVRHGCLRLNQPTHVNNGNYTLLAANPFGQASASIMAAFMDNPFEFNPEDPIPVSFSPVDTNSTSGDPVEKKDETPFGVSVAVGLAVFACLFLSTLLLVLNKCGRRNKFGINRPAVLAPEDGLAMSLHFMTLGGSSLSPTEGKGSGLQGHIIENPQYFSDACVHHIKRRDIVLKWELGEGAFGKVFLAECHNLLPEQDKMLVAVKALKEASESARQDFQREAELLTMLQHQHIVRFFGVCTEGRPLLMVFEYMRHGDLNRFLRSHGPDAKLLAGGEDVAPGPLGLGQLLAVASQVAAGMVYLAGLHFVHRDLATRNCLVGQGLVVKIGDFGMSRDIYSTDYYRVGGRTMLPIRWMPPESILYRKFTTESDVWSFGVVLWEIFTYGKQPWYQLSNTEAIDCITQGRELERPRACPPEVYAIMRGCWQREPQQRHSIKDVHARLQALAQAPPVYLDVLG
Sequence of Aurora kinase A (Homo sapiens) (O14965 whole entry, the tested form may be a part): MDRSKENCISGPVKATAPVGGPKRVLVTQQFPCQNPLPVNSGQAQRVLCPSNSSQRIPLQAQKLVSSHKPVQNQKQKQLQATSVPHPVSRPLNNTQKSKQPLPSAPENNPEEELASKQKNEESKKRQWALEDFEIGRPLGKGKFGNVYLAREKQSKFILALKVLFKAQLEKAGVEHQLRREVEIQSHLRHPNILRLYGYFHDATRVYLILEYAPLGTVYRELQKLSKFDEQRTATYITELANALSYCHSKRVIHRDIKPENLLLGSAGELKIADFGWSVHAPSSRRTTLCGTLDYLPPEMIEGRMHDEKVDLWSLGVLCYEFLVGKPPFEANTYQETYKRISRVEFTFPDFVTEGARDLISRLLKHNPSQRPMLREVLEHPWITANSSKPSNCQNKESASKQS
Sequence of Protein arginine N-methyltransferase 3 (O60678 whole entry): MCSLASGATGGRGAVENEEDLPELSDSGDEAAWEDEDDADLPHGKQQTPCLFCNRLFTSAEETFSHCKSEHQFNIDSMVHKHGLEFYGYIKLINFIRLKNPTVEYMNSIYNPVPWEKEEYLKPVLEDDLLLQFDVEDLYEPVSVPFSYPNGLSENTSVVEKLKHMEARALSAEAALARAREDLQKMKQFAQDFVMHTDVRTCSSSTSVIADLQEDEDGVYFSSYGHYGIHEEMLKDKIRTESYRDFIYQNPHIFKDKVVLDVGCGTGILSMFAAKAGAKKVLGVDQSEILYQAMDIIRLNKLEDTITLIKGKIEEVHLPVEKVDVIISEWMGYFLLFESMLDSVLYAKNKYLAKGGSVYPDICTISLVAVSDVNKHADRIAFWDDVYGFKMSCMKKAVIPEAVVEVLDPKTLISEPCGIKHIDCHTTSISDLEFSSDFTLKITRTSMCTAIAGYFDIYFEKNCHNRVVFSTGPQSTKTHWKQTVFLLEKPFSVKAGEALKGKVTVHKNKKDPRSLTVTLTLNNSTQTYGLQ
Sequence of D(2) dopamine receptor (Homo sapiens) (P14416 whole entry): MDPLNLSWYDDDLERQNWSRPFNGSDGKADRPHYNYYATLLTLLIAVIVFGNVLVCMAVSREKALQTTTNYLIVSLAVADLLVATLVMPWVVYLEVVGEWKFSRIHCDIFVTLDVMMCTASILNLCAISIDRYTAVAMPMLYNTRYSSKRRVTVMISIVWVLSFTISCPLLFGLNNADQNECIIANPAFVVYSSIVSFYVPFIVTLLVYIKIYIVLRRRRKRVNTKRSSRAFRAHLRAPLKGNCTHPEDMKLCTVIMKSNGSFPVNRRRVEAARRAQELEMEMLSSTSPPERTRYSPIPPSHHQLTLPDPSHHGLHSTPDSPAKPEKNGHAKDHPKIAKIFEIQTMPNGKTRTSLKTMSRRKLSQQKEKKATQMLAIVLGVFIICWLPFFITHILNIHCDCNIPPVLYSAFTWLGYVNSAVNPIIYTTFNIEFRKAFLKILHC
Sequence of Histone-lysine N-methyltransferase EZH2 (Homo sapiens, UniProt Q15910, Y641F) (Q15910 whole entry Y641F): as the sequence (Q15910 whole entry) above, with Y641F counted along it

`CCCc1cc(C)[nH]c(=O)c1CNC(=O)c1cc(-c2ccc(N3CCN(C(C)C)CC3)nc2)cc2c1cnn2C(C)C` showed an inhibition [1] of -8%, an inhibition [2] of 0% and an inhibition [3] of 7%. It also gave an inhibition [4] of -4%, an inhibition [5] of -3% and an inhibition [6] of -7%. For the same compound, the inhibition at 10 µM [7] was 6%, the inhibition [8] was 5% and the inhibition [9] was -3%. For the same compound, the inhibition [10] was 44%, the inhibition [11] was 2% and the inhibition [12] was 3%. The inhibition [13] was 14%, the inhibition [14] was 13% and the inhibition [15] was 9%. The inhibition [16] was 2%, the inhibition [17] was 30% and the inhibition [18] was 9%. The inhibition [19] was 13%, the IC50 [20] was under 15 nM and the IC50 [21] was over 100000 nM. The IC50 [22] was over 100000 nM, the IC50 [23] was over 100000 nM and the IC50 [24] was over 100000 nM. For the same compound, the IC50 [25] was over 100000 nM, the Activity (DB) was “Active” and the Ki (Histamine H3 receptor) was 300 nM. For the same compound, the Ki [26] was 4.6 nM and the IC50 [27] was 124 nM.
